Results from publication PMC12486805, “Preclinical evaluation of tridecaptin M: in vitro and in vivo efficacy against colistin-resistant Gram-negative bacterial pathogens and pharmacokinetics” (Antimicrobial Agents and Chemotherapy, 2025).

How the values were obtained:
CYP2D6 = CYP2D6 (Homo sapiens, UniProt P10635); experiment: CYP inhibition assay, recombinant isoform, fluorescence; assay type: biochemical; conditions: human, recombinant CYP2D6
Method: (§1) The CYP inhibition assay was performed for test/control inhibitor items in duplicates using a 96-well fluorescence plate. An example of the preparation of CYP inhibition is given below in Table 8.
(§2) The plate with CYP master premix with test/control was incubated to allow the test/control samples to interact with CYP enzyme for 10 ± 1 min at 25°C under shaking conditions (400 rpm) using Thermomixer. The assay was initiated by adding 10 µL of a substrate and NADP^+ mixture to all wells, including a vehicle control and an assay blank. […] After incubation, the reaction was quenched by adding 50 µL of stop reagent (0.5 M Tris base) to each well.

CYP1A2 = biological target: T1, CYP1A2 (Homo sapiens, UniProt P05177); experiment: in vitro; assay type: biochemical; conditions: human, % inhibition CYP 1A2
T1 sequence (P05177 1-516): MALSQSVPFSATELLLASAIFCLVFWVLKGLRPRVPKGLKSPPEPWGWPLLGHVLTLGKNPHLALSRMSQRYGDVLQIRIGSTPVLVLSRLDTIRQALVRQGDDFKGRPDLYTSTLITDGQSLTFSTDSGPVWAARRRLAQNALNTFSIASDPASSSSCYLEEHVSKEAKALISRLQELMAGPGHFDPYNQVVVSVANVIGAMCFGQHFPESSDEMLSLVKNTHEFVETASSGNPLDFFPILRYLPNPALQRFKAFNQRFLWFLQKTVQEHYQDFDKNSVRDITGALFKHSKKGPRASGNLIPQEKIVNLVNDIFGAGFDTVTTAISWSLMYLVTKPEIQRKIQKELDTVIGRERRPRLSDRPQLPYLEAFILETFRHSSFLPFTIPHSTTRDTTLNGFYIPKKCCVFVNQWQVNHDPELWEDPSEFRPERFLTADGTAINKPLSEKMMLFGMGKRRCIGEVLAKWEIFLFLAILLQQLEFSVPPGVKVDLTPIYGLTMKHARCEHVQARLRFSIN
Method: as §1, §2

E. coli = assay type: cell-based, Escherichia coli
Method: (§3) The MIC for all isolates was determined using the broth microdilution method. This involved preparing CA-MHB medium and serially diluting antibiotic solutions by a factor of two. The test organism was adjusted to a concentration of ≈5 × 10^5 CFU/mL. In a sterile 96-well microtiter plate, 100 µL of CA-MHB, along with 100 µL of each antibiotic, was added, and serial dilutions were made. A 100 µL suspension of the organism was added to each well and mixed, resulting in a total reaction volume of 200 µL per well. The plate was then incubated at 37°C for 16–18 h. The MIC was identified as the lowest concentration of antibiotic that prevented any visible growth of the organism ([16]).

[1] = Intravenous acute toxicity in mice; assay type: in vivo, Balb/c mice; conditions: 18 mg/kg i.v.
Method: In total, 8–10 week old female Balb/c mice (n = 3) were administered tridecaptin M starting at 15 mg/kg, 25 mg/kg, 50 mg/kg, and 100 mg/kg. […] In this study, we administered 18 mg/kg of colistin to mice intravenously. […] Later, in the second set, intermediate concentrations of 20 mg/kg, 25 mg/kg, 30 mg/kg, 35 mg/kg, and 40 mg/kg doses were also administered to n = 4 mice. In these groups, blood was collected at 24 h post administration or immediately after visible movement stopped (40 mg/kg group), serum was separated and pooled together for each group n = 4, and biochemical serum tests were conducted.

[2] = cited from earlier work
K. pneumoniae = assay type: cell-based, Klebsiella pneumoniae
Method: as §3

[3] = test system: K. pneumoniae ATCC 700603; experiment: Peritonitis infection model for intravenous efficacy in Balb/c mice; assay type: in vivo, Klebsiella pneumoniae; conditions: single i.v. dose 5 mg/kg, 4 h post-infection
Method: Balb/c mice (n = 6), 8-10 weeks old, are rendered neutropenic with cyclophosphamide as in previous experiments. A bacterial load of K. pneumoniae ATCC 700603 standard strain corresponding to ≈10^7 CFU/mL was used, and 100 μL was administered intraperitoneally to cause multi-organ infection conditions. At 4 h, the pre-treatment group was euthanized, and the right kidney of each mouse was harvested, homogenized, serially diluted, and spotted on MHA plates to determine bacterial CFU count per kidney. Simultaneously, at 4 h, the remaining groups were administered 5 mg/kg colistin, 5 mg/kg tridecaptin M, 10 mg/kg tridecaptin M, and vehicle control (PBS); 24 h after treatment, the remaining groups were euthanized, and the CFU count in the right kidney was determined the same as the 4 h pre-treatment group.

K. pneumoniae AH-16 = experiment: Mucin peritonitis survival model in BALB/c mice; assay type: in vivo, Klebsiella pneumoniae; conditions: 5 mg/kg s.c., three doses at 2, 12, 24 h post-infection
Method: The survival study was performed by following a method described earlier, with some modifications; 8–10 week old, female BALB/c mice, 10 mice in each group, were infected with 100μL (OD600nm = 1) of K. pneumoniae AH-16 bacterial suspension prepared in porcine mucin 5% via intraperitoneal injection. Mice were injected subcutaneously with tridecaptin M (10 mg/kg) and colistin (5 mg/kg). The treatment was given in three doses at 2 h, 12 h, and 24 h post-infection to ensure a 15 mg/kg/day maximum dose limit for colistin. The survival or death of mice was monitored and recorded every 12 h for 7 days ([41]).

CYP2C9 = CYP2C9 (Homo sapiens, UniProt P11712); experiment: CYP inhibition assay, recombinant isoform, fluorescence; assay type: biochemical; conditions: human, read-out: % inhibition CYP 2C9
Method: as §1
The plate with CYP master premix with test/control was incubated to allow the test/control samples to interact with CYP enzyme for 10 ± 1 min at 25°C under shaking conditions (400 rpm) using Thermomixer. The assay was initiated by adding 10 µL of a substrate and NADP^+ mixture to all wells, including a vehicle control and an assay blank. The plate was then incubated at 25°C for 25 min with shaking at 400 rpm using a thermomixer. After incubation, the reaction was quenched by adding 50 µL of stop reagent (0.5 M Tris base) to each well. Fluorescence was measured using a microplate reader at excitation/emission wavelengths of 415/460 nm, respectively ([37]).

in vitro [4] = conditions: mouse, liver microsomes, pH 7.4
in vitro [5] = conditions: rat, liver microsomes, pH 7.4
in vitro [6] = conditions: human, liver microsomes, pH 7.4

Sequence of CYP2C9 (P11712 whole entry, canonical isoform): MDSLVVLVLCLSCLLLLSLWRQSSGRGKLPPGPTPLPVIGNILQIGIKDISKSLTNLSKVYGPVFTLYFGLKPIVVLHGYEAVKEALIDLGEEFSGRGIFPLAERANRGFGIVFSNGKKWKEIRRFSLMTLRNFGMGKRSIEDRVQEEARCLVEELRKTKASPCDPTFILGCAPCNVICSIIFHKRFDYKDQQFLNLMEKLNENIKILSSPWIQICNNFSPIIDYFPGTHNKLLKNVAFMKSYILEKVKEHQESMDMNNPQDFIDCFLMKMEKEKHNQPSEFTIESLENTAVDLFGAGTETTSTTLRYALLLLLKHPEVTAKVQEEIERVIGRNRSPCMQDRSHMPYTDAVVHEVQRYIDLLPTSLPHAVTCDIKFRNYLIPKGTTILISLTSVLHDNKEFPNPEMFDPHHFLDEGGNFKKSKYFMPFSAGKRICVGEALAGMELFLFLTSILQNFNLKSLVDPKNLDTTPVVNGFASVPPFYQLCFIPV
Sequence of CYP2D6 (P10635 whole entry, canonical isoform): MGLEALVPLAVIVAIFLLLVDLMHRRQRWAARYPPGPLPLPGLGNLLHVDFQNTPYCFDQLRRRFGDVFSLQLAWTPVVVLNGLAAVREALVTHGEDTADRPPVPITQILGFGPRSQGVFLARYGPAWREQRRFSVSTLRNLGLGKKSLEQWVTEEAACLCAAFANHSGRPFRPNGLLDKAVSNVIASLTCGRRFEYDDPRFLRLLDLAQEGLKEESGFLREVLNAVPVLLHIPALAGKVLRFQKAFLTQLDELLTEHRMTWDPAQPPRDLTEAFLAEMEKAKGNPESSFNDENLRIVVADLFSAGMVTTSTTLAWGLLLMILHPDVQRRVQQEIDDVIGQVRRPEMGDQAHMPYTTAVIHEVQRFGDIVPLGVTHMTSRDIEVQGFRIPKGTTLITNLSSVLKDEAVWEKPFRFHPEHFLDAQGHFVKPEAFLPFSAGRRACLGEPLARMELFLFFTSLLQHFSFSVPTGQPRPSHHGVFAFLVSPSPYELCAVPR

With `C=C[C@H]1C[N@@]2CC[C@H]1C[C@@H]2[C@@H](O)c1ccnc2ccc(OC)cc12` [Quinidine, reference compound] the inhibition at 25 min, 0.003 µM (CYP2D6) was 52.4%, the inhibition at 25 min, 0.0003 µM (CYP2D6; 0.0003 µM, read-out: % inhibition CYP 2D6) was < 0% and the inhibition at 25 min, 0.001 µM (CYP2D6; 0.001 µM, read-out: % inhibition CYP 2D6) was 14%. The inhibition at 25 min, 0.01 µM (CYP2D6; 0.01 µM, read-out: % inhibition CYP 2D6) was 88.6%, the inhibition at 25 min, 0.03 µM (CYP2D6; 0.03 µM, read-out: % inhibition CYP 2D6) was 92.6% and the inhibition at 25 min, 0.1 µM (CYP2D6; 0.1 µM, read-out: % inhibition CYP 2D6) was 93.4%. The inhibition at 25 min, 0.3 µM (CYP2D6; 0.3 µM, read-out: % inhibition CYP 2D6) was 92.5% and the inhibition at 25 min, 1 µM (CYP2D6; 1 µM, read-out: % inhibition CYP 2D6) was 95.7%.
For `Cc1nc2c([nH]1)c(=O)n(C)c(=O)n2Cc1ccco1` [Furafylline, reference compound], the inhibition at 25 min, 0.01 µM (CYP1A2) was < 0%, the inhibition at 25 min, 0.03 µM (CYP1A2) was < 0% and the inhibition at 25 min, 0.1 µM (CYP1A2) was < 0%. It also gave an inhibition at 25 min, 0.3 µM (CYP1A2) of 9.3%, an inhibition at 25 min, 1 µM (CYP1A2) of 45.3% and an inhibition at 25 min, 3 µM (CYP1A2) of 67.7%. The inhibition at 25 min, 10 µM (CYP1A2) was 90.8%.
With colistin [reference compound] the MIC range (E. coli; Col-S clinical isolates (52)) was 0.25 to 1 µg/mL, the MIC (E. coli; Std. QC strain ATCC 25922) was 0.25 µg/mL and the “outcome of i.v. administration” value [1] was “immediately lethal”. For the same compound, the “subcutaneous dose known to be lethal to mice” value [2] was “exceeding 36 mg/kg”, the “mortality in acute toxicity study” value ([2]; colistin group of the same study) was “all mice in the colistin group died within 24 h” and the MIC range (K. pneumoniae; Col-S (colistin sensitive) clinical isolates (72)) was 0.25 to 2 µg/mL. The MIC (K. pneumoniae; Std. QC strain ATCC 700603) was 0.5 µg/mL, the “efficacy (CFU/kidney) compared with tridecaptin M” value [3] was “superior performance” and the “survival at the end of 7 days” value (K. pneumoniae AH-16) was 40%.
With `Nc1ccc(S(=O)(=O)Nc2ccnn2-c2ccccc2)cc1` [Sulfaphenazole, reference compound] the inhibition at 25 min, 0.001 µM (CYP2C9; 0.001 µM) was < 0%, the inhibition at 25 min, 0.003 µM (CYP2C9; 0.003 µM) was 3.42% and the inhibition at 25 min, 0.01 µM (CYP2C9; 0.01 µM) was 11.3%. The inhibition at 25 min, 0.03 µM (CYP2C9; 0.03 µM) was 27.2%, the inhibition at 25 min, 0.1 µM (CYP2C9; 0.1 µM) was 34.7% and the inhibition at 25 min, 0.3 µM (CYP2C9; 0.3 µM) was 45.2%. It also gave an inhibition at 25 min, 1 µM (CYP2C9; 1 µM) of 53.5% and an inhibition at 25 min, 3 µM (CYP2C9; 3 µM) of 57.9%.
`O=C(O)Cc1ccccc1Nc1c(Cl)cccc1Cl` [Diclofenac, reference compound] showed a half-life (in vitro [4]) of 1.54 h, a microsomal CLint (in vitro [4]) of 15 µL/min/mg and a remaining at 0.5 h (in vitro [4]) of 77.7%. For the same compound, the remaining at 1 h (in vitro [4]) was 58.7%, the remaining at 2 h (in vitro [4]) was 40.1% and the half-life (in vitro [5]) was > 2 h. For the same compound, the microsomal CLint (in vitro [5]) was < 11.6 µL/min/mg, the remaining at 0.25 h (in vitro [5]) was 102% and the remaining at 0.5 h (in vitro [5]) was 88.6%. The remaining at 1 h (in vitro [5]) was 67.2%, the remaining at 2 h (in vitro [5]) was 64.5% and the half-life (in vitro [6]) was 0.327 h. For the same compound, the microsomal CLint (in vitro [6]) was 70.6 µL/min/mg, the remaining at 0.25 h (in vitro [6]) was 53.2% and the remaining at 0.5 h (in vitro [6]) was 36.5%. The remaining at 1 h (in vitro [6]) was 11.6% and the remaining at 2 h (in vitro [6]) was 8.3%.
